Assay results published in patent US20220402935A1, “HETEROCYCLIC COMPOUND” (FIMECS, INC., priority 2019, published 2022).

Each compound was assayed against T1, IRAK-M (Homo sapiens, UniProt Q9Y616) (assay: IRAK-M binding inhibitory activity (KINOMEscan active site-dependent competitive assay)). Conditions: concentration of the test compound 1 μM; first symbol of cell; read-out: IRAK-M binding inhibition activity % Ctrl.
T1 sequence (Q9Y616 1-596): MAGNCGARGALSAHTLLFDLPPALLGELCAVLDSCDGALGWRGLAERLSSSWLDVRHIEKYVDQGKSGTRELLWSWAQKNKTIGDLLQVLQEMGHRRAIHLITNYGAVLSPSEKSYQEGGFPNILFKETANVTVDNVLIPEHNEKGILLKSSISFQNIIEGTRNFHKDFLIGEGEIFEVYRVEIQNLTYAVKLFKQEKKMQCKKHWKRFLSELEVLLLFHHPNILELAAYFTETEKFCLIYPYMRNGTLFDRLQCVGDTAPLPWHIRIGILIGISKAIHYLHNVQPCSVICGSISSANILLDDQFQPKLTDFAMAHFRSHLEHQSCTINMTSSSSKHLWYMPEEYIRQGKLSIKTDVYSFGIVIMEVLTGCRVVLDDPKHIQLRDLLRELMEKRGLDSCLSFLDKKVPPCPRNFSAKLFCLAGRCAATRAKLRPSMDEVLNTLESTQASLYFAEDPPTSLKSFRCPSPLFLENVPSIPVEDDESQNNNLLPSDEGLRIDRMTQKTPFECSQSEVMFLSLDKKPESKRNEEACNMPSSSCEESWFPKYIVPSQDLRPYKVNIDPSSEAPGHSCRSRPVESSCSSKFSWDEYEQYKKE
Set-up: purchased Eurofins Discover X
Outline: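 Readout given as % Ctrl, with DMSO as 100% and a control compound as 0%, scaling the test compound signal between them. Binding to human IRAK-M was assessed by KINOMEscan competition at the kinase active site.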

Row | SMILES | remaining binding at 1 µM [%]
1 | Cc1nn(C)c(C)c1CN1CCC(Oc2ccnc3ccsc23)CC1 [Ref. example 75, 7-((1-((1,3,5-trimethyl-1H-pyrazol-4-yl)methyl)piperidin-4-yl)oxy)thieno[3,2-b]pyridine] | ≥ 75
2 | Cc1noc(C)c1CN1CCC(Oc2ccnc3ccsc23)CC1 [Ref. example 78, 3,5-dimethyl-4-((4-(thieno[3,2-b]pyridin-7-yloxy)piperidin-1-yl)methyl)isoxazole] | 25 to 50
3 | c1csc(CN2CCC(Oc3ccnc4ccsc34)CC2)n1 [Ref. example 79, 7-((1-(thiazol-2-ylmethyl)piperidin-4-yl)oxy)thieno[3,2-b]pyridine] | 25 to 50
4 | Cc1cc2nccc(OC3CCN(Cc4cc(O)no4)CC3)c2s1 [Ref. example 87, 5-((4-((2-methylthieno[3,2-b]pyridin-7-yl)oxy)piperidin-1-yl)methyl)isoxazol-3-ol] | 25 to 50
5 | Cc1cc2nccc(OC3CCN(C(C)c4cc(O)no4)CC3)c2s1 (stereo not drawn) [Ref. example 88, 5-(1-(4-((2-methylthieno[3,2-b]pyridin-7-yl)oxy)piperidin-1-yl)ethyl)isoxazol-3-ol] | 25 to 50

Now from value to compound:

Row | remaining binding at 1 µM [%] | SMILES
6 | ≥ 75 | Cn1cc(CN2CCC(Oc3ccnc4ccsc34)CC2)cn1 [Ref. example 73, 7-((1-((1-methyl-1H-pyrazol-4-yl)methyl)piperidin-4-yl)oxy)thieno[3,2-b]pyridine]
7 | 50 to 75 | Cc1nn(C)cc1CN1CCC(Oc2ccnc3ccsc23)CC1 [Ref. example 74, 7-((1-((1,3-dimethyl-1H-pyrazol-4-yl)methyl)piperidin-4-yl)oxy)thieno[3,2-b]pyridine]
8 | 50 to 75 | Cc1c(CN2CCC(Oc3ccnc4ccsc34)CC2)cnn1C [Ref. example 76, 7-((1-((1,5-dimethyl-1H-pyrazol-4-yl)methyl)piperidin-4-yl)oxy)thieno[3,2-b]pyridine]
9 | 25 to 50 | Cn1nccc1CN1CCC(Oc2ccnc3ccsc23)CC1 [Ref. example 77, 7-((1-((1-methyl-1H-pyrazol-5-yl)methyl)piperidin-4-yl)oxy)thieno[3,2-b]pyridine]
10 | 25 to 50 | Cc1ncc(CN2CCC(Oc3ccnc4ccsc34)CC2)s1 [Ref. example 80, 7-((1-((2-methylthiazol-5-yl)methyl)piperidin-4-yl)oxy)thieno[3,2-b]pyridine]
11 | 50 to 75 | O=C(Cn1cccn1)N1CCC(Oc2ccnc3ccsc23)CC1 [Ref. example 81, 2-(1H-pyrazol-1-yl)-1-(4-(thieno[3,2-b]pyridin-7-yloxy)piperidin-1-yl)ethan-1-one]
12 | 50 to 75 | O=C(Cn1nccn1)N1CCC(Oc2ccnc3ccsc23)CC1 [Ref. example 82, 1-(4-(thieno[3,2-b]pyridin-7-yloxy)piperidin-1-yl)-2-(2H-1,2,3-triazol-2-yl)ethan-1-one]
13 | 25 to 50 | C=CCn1oc(CN2CCC(Oc3ccnc4ccsc34)CC2)cc1=O [Ref. example 84, 2-allyl-5-((4-(thieno[3,2-b]pyridin-7-yloxy)piperidin-1-yl)methyl)isoxazol-3(2H)-one]

Same assay, conditions: second symbol of cell; read-out: IRAK-M binding inhibition IC50 value

Row | SMILES | IC50 [nM]
14 | C#CCOc1cc(CN2CCC(Oc3ccnc4ccsc34)CC2)on1 [Ref. example 71, 3-(prop-2-yn-1-yloxy)-5-((4-(thieno[3,2-b]pyridin-7-yloxy)piperidin-1-yl)methyl)isoxazole] | 30 to 100
15 | COCCOc1cc(CN2CCC(Oc3ccnc4ccsc34)CC2)on1 [Ref. example 85, 3-(2-methoxyethoxy)-5-((4-(thieno[3,2-b]pyridin-7-yloxy)piperidin-1-yl)methyl)isoxazole] | 100 to 300
16 | C=CCOc1cc(CN2CCC(Oc3ccnc4cc(C#N)sc34)CC2)on1 [Ref. example 86, 7-((1-((3-(allyloxy)isoxazol-5-yl)methyl)piperidin-4-yl)oxy)thieno[3,2-b]pyridine-2-carbonitrile] | 100 to 300

Continued, values first:

Row | IC50 [nM] | SMILES
17 | 300 to 1000 | CN[C@@H](C)C(=O)N[C@H](C(=O)N1CCN(C(=O)c2c(C(=O)NCCOCCOCCOc3ccc(S(=O)(=O)N4CCC(Oc5ncnc6ccsc56)CC4)cc3)c3ccc(OC)cc3n2C)CC1)C1CCCCC1 [Example 2, 2-(4-((S)-2-Cyclohexyl-2-((S)-2-(methylamino)propanamido)acetyl)piperazine-1-carbonyl)-6-methoxy-1-methyl-N-(2-(2-(2-(4-((4-(thieno[3,2-d]pyrimidin-4-yloxy)piperidin-1-yl)sulfonyl)phenoxy)ethoxy)ethoxy)ethyl)-1H-indole-3-carboxamide]
18 | 100 to 300 | C=CCOc1cc(CN2CCC(Oc3ncnc4ccsc34)CC2)on1 [Ref. example 70, 3-(allyloxy)-5-((4-(thieno[3,2-d]pyrimidin-4-yloxy)piperidin-1-yl)methyl)isoxazole]
19 | 30 to 100 | C=CCOc1cc(CN2CCC(Oc3ccnc4cc(C)sc34)CC2)on1 [Ref. example 72, 3-(allyloxy)-5-((4-((2-methylthieno[3,2-b]pyridin-7-yl)oxy)piperidin-1-yl)methyl)isoxazole]
20 | < 30 | C=CCOc1cc(C(C)N2CCC(Oc3ccnc4ccsc34)CC2)on1 (stereo not drawn) [Ref. example 83, 3-(allyloxy)-5-(1-(4-(thieno[3,2-b]pyridin-7-yloxy)piperidin-1-yl)ethyl)isoxazole]

These compounds were tested against T2, human XIAP_BIR3 domain purified protein (Homo sapiens, UniProt P98170) (assay: XIAP binding inhibitory activity (HTRF, b-Smac ligand)). Conditions: concentration of the test compound 3 μM; first symbol of cell; read-out: XIAP binding inhibition rate.
T2 construct: purchased R & D
T2 sequence (P98170 252-356 limits assumed): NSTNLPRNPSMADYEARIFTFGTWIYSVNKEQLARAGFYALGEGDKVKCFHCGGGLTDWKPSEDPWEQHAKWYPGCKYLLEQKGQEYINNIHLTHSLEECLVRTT
Description: Human XIAP binding inhibitory activity was measured by the Homogeneous Time Resolved Fluorescence (HTRF) method with using commercially available human XIAP_BIR3 domain purified protein (R & D) and as a ligand a Smac N-terminal peptide (AVPIAQK (SEQ ID NO: 1)) (hereinafter referred to as “b-Smac”; Peptide Research Laboratories, Inc.) biotinylated at the C-terminus according to a conventional method.
The HTRF method will be described in detail below.
The test compound diluted with a reaction buffer (25 mM HEPES Buffer containing 100 mM NaCl, 0.1% BSA, and 0.1% triton X-100, pH 7.5) was added to a 384-well white shallow bottom plate (Greiner 784076) at 1 μL/well and flash centrifuged for 30 seconds. Subsequently, human XIAP_BIR3 domain purified protein was diluted with the reaction buffer to obtain a 90 nM sample diluent, and the resultant sample diluent was added to the above-mentioned white superficial plate at 4.5 μL/well and flash centrifuged for 30 seconds. Subsequently, b-Smac diluted to 90 nM with the reaction buffer was added to the above-mentioned white superficial plat at 4.5 μL/well and flash centrifuged for 30 seconds. A mixed solution of Anti-6 HIS-Cryptate (Eu^3+ Cryptate-conjugated mouse monoclonal antibody anti-6 Histidine; cisbio) and Streptavidin-XL^eat (Highgrade XL665-conjugated streptavidin; cisbio) both diluted 100-fold with HTRF detection buffer (cisbio) at a volume ratio of 1:1 was added to the above white superficial plate at 10 μL/well. After flash centrifuging the white shallow bottom plate for 30 seconds, the white shallow bottom plate was left at room temperature for 4 hours or more in the dark. The white superficial plate after being left was subjected to fluorescence intensity measurement (excitation wavelength: 320 nm, fluorescence wavelength: 665 nm and 615 nm) by EnVision (Perkin Elmer). The binding inhibition rate (%) was calculated based on the HTRF ratio in the presence of the test compound to the HTRF ratio in the absence of the test compound (fluorescence intensity at 665 nm/fluorescence intensity at 615 nm).
The XIAP binding inhibition rate (%) of test compounds was evaluated.

Row | SMILES | inhibition at 3 µM [%]
21 | CN[C@@H](C)C(=O)N[C@H](C(=O)N1CCN(C(=O)c2cc3cc(F)c(F)cc3n2CCOCCOCCOc2cc(CN3CCC(Oc4ccnc5ccsc45)CC3)on2)CC1)C1CCCCC1 [Example 30, (S)-N-((S)-1-cyclohexyl-2-(4-(5,6-difluoro-1-(2-(2-(2-((5-((4-(thieno[3,2-b]pyridin-7-yloxy)piperidin-1-yl)methyl)isoxazol-3-yl)oxy)ethoxy)ethoxy)ethyl)-1H-indole-2-carbonyl)piperazin-1-yl)-2-oxoethyl)-2-(methylamino)propanamide] | > 25

Same assay, conditions: second symbol of cell; read-out: XIAP binding inhibition IC50 value

Row | SMILES | IC50 [µM]
22 | CN[C@@H](C)C(=O)N[C@H](C(=O)N1CCN(C(=O)c2c(C(=O)NCCOCCOCCOc3ccc(S(=O)(=O)N4CCC(Oc5ncnc6ccsc56)CC4)cc3)c3ccc(OC)cc3n2C)CC1)C1CCCCC1 [Example 2, 2-(4-((S)-2-Cyclohexyl-2-((S)-2-(methylamino)propanamido)acetyl)piperazine-1-carbonyl)-6-methoxy-1-methyl-N-(2-(2-(2-(4-((4-(thieno[3,2-d]pyrimidin-4-yloxy)piperidin-1-yl)sulfonyl)phenoxy)ethoxy)ethoxy)ethyl)-1H-indole-3-carboxamide] | 0.3 to 3
23 | CN[C@@H](C)C(=O)N[C@H](C(=O)N1CCN(C(=O)c2cc3cc(F)ccc3n2CC(=O)N2C[C@@H](Oc3cc(CN4CCC(Oc5ccnc6ccsc56)CC4)on3)C[C@H]2CO)[C@@H](C)C1)C1CCCCC1 [Example 43, (S)-N-((S)-1-cyclohexyl-2-((S)-4-(5-fluoro-1-(2-((2S,4S)-2-(hydroxymethyl)-4-((5-((4-(thieno[3,2-b]pyridin-7-yloxy)piperidin-1-yl)methyl)isoxazol-3-yl)oxy)pyrrolidin-1-yl)-2-oxoethyl)-1H-indole-2-carbonyl)-3-methylpiperazin-1-yl)-2-oxoethyl)-2-(methylamino)propanamide] | 3 to 30
24 | CN[C@@H](C)C(=O)N[C@H](C(=O)N1CCN(C(=O)c2cc3cc(F)ccc3n2CC(=O)N(C)CCOc2cc(CN3CCC(Oc4ccnc5ccsc45)CC3)on2)[C@@H](C)C1)C1CCCCC1 [Example 50, (S)-N-((S)-1-cyclohexyl-2-((S)-4-(5-fluoro-1-(2-(methyl(2-((5-((4-(thieno[3,2-b]pyridin-7-yloxy)piperidin-1-yl)methyl)isoxazol-3-yl)oxy)ethyl)amino)-2-oxoethyl)-1H-indole-2-carbonyl)-3-methylpiperazin-1-yl)-2-oxoethyl)-2-(methylamino)propanamide] | 3 to 30
